Reference: patent US10717716B2, “1,3,4-oxadiazole derivative compounds as histone deacetylase 6 inhibitor, and the pharmaceutical composition comprising the same” (Chong Kun Dang Pharmaceutical Corp., priority 2015, dated 2020)

Biological target: T1, human recombinant HDAC6 (Homo sapiens, UniProt Q9UBN7)
T1 construct: purchased Calbiochem 382180
T1 sequence (Q9UBN7 1-1215): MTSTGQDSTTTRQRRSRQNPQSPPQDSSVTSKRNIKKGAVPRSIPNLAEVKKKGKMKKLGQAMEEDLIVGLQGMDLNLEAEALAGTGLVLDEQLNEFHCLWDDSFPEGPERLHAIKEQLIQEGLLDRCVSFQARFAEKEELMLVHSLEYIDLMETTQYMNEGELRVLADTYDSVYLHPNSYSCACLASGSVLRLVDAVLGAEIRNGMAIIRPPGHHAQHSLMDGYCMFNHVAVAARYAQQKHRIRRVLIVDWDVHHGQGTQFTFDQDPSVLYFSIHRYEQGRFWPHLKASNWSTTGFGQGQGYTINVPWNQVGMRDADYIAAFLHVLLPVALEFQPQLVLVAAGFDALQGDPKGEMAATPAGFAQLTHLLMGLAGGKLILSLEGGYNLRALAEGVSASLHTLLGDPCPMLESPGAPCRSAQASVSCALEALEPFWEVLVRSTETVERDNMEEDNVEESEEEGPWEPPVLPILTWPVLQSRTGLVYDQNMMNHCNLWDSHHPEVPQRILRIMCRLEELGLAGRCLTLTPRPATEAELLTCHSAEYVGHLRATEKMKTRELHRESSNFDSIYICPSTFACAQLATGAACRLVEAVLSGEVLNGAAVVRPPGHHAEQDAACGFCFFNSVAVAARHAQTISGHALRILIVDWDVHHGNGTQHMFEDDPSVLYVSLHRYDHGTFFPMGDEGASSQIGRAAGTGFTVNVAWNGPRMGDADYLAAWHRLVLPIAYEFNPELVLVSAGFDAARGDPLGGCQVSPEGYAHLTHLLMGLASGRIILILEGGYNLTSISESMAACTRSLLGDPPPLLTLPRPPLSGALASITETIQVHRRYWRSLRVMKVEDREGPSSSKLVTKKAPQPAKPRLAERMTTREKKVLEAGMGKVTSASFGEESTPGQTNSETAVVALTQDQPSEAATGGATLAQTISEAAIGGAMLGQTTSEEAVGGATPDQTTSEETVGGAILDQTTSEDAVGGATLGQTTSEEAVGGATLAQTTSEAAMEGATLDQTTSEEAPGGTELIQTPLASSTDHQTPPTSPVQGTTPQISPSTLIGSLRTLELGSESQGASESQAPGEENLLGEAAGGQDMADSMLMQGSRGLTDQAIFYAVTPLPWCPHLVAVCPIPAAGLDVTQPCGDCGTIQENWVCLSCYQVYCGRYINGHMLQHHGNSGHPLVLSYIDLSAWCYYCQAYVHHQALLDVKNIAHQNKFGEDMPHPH
Experiment: HDAC6 enzyme activity inhibition assay (HDAC Fluorimetric Drug Discovery Kit)
Type: biochemical
Conditions: for HDAC6 selectivity (fold): HDAC6 over HDAC1; for IC50: human recombinant HDAC6, same protocol as HDAC1, read-out: HDAC6
Summary of the method: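 Human recombinant HDAC1 or HDAC6 (0.3 μg) reacted with 10 μM Fluor de Lys-SIRT1 substrate and 5-fold compound dilutions for 60 min at 30 °C. Developer II added for 30 min, fluorescence read at Ex 360/Em 460; IC50 calculated from the readings.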

Row | HDAC6 selectivity (fold) | IC50 | SMILES
1 | 323 fold | 31 nM | Cc1cccc(N(Cc2ccc(-c3nnc(C(F)F)o3)cn2)C(=O)N2CCN(C)CC2)c1 [Compound 21597, N-((5-(5-(difluoromethyl)-1,3,4-oxadiazol-2-yl)pyridin-2-yl)methyl)-4-methyl-N-(m-tolyl)piperazine-1-carboxamide]
2 | 238 fold | 42 nM | Cc1ccc(N(Cc2ccc(-c3nnc(C(F)F)o3)cn2)C(=O)N2CCN(C)CC2)cc1 [Compound 21598, N-((5-(5-(difluoromethyl)-1,3,4-oxadiazol-2-yl)pyridin-2-yl)methyl)-4-methyl-N-(p-tolyl)piperazine-1-carboxamide]
3 | 500 fold | 20 nM | CN1CCN(C(=O)N(Cc2ccc(-c3nnc(C(F)F)o3)cn2)c2cccc(F)c2)CC1 [Compound 21599, N-((5-(5-(difluoromethyl)-1,3,4-oxadiazol-2-yl)pyridin-2-yl)methyl)-N-(3-fluorophenyl)-4-methylpiperazine-1-carboxamide]
4 | 400 fold | 25 nM | CN1CCN(C(=O)N(Cc2ccc(-c3nnc(C(F)F)o3)cn2)c2ccc(F)cc2)CC1 [Compound 21600, N-((5-(5-(difluoromethyl)-1,3,4-oxadiazol-2-yl)pyridin-2-yl)methyl)-N-(4-fluorophenyl)-4-methylpiperazine-1-carboxamide]
5 | 192 fold | 52 nM | CN(C)[C@H]1CCN(C(=O)N(Cc2ccc(-c3nnc(C(F)F)o3)cn2)c2ccc(F)c(Cl)c2)C1 [Compound 21601, (S)—N-(3-chloro-4-fluorophenyl)-N-((5-(5-(difluoromethyl)-1,3,4-oxadiazol-2-yl)pyridin-2-yl)methyl)-3-(dimethylamino)pyrrolidine-1-carboxamide]
6 | 526 fold | 19 nM | CN(C)[C@@H]1CCN(C(=O)N(Cc2ccc(-c3nnc(C(F)F)o3)cn2)c2ccc(F)c(Cl)c2)C1 [Compound 21602, (R)—N-(3-chloro-4-fluorophenyl)-N-((5-(5-(difluoromethyl)-1,3,4-oxadiazol-2-yl)pyridin-2-yl)methyl)-3-(dimethylamino)pyrrolidine-1-carboxamide]
7 | 517 fold | 19 nM | O=C(N1CCOCC1)N(Cc1ccc(-c2nnc(C(F)F)o2)cn1)c1ccc(F)c(Cl)c1 [Compound 21619, N-(3-chloro-4-fluorophenyl)-N-((5-(5-(difluoromethyl)-1,3,4-oxadiazol-2-yl)pyridin-2-yl)methyl)morpholine-4-carboxamide]
8 | 383 fold | 26 nM | CN1CCN(C(=O)N(Cc2ccc(-c3nnc(C(F)F)o3)cn2)c2ccc(F)c(Cl)c2)CC1 [Compound 21620, N-(3-chloro-4-fluorophenyl)-N-((5-(5-(difluoromethyl)-1,3,4-oxadiazol-2-yl)pyridin-2-yl)methyl)-4-methylpiperazine-1-carboxamide]
9 | 16 fold | 637 nM | CN1CCN(c2cccc(N(Cc3ccc(-c4nnc(C(F)F)o4)cc3)C(=O)N3CCS(=O)(=O)CC3)c2)CC1 [Compound 21621, N-(4-(5-(difluoromethyl)-1,3,4-oxadiazol-2-yl)benzyl)-N-(3-(4-methylpiperazin-1-yl)phenyl)thiomorpholine-4-carboxamide 1,1-dioxide]
10 | 226 fold | 44 nM | COc1cccc(N(Cc2ccc(-c3nnc(C(F)F)o3)cn2)C(=O)N2CCN(C)CC2)c1 [Compound 21622, N-((5-(5-(difluoromethyl)-1,3,4-oxadiazol-2-yl)pyridin-2-yl)methyl)-N-(3-methoxyphenyl)-4-methylpiperazine-1-carboxamide]
11 | 290 fold | 35 nM | COc1ccc(N(Cc2ccc(-c3nnc(C(F)F)o3)cn2)C(=O)N2CCN(C)CC2)cc1 [Compound 21623, N-((5-(5-(difluoromethyl)-1,3,4-oxadiazol-2-yl)pyridin-2-yl)methyl)-N-(4-methoxyphenyl)-4-methylpiperazine-1-carboxamide]
